Data as given in PubChem BioAssay (NCI).
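48-hour exposure; five concentrations; linearly interpolated endpoints. Definition used: TGI = concentration required for complete inhibition of growth.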

Assays:
Assay in all cases: NCI tumour cell line growth inhibition, 48 h
[1] = test system: MDA-MB-231 breast
[2] = test system: BT-549 breast
[3] = test system: OVCAR-8 ovarian
[4] = test system: HCC-2998 colon
[5] = test system: ACHN renal
[6] = test system: SK-OV-3 ovarian
[7] = test system: SF-295 CNS
[8] = test system: UACC-257 melanoma
[9] = test system: MDA-MB-435
[10] = test system: EKVX NSCLC
[11] = test system: M14 melanoma
[12] = test system: KM12 colon
[13] = test system: MALME-3M melanoma
[14] = test system: HOP-62 NSCLC
[15] = test system: SF-268 CNS
[16] = test system: CCRF-CEM leukemia
[17] = test system: NCI-H522 lung
[18] = test system: HOP-92 NSCLC
[19] = test system: HL-60(TB) leukemia
[20] = test system: MOLT-4 leukemia
[21] = test system: RXF 393 renal
[22] = test system: OVCAR-4 ovarian
[23] = test system: MCF7 breast
[24] = test system: NCI/ADR-RES ovarian
[25] = test system: SK-MEL-2 melanoma
[26] = test system: SW-620 colon
[27] = test system: SR leukemia
[28] = test system: NCI-H23 lung
[29] = test system: SK-MEL-28 melanoma
[30] = test system: SN12C renal
[31] = test system: TK-10 renal
[32] = test system: COLO 205 colon
[33] = test system: NCI-H226 lung
[34] = test system: CAKI-1 renal
[35] = test system: SK-MEL-5 melanoma
[36] = test system: UO-31 renal
[37] = test system: SF-539 CNS
[38] = test system: 786-0 renal
[39] = test system: HCT-116 colon
[40] = test system: DU-145 prostate
[41] = test system: NCI-H460 lung
[42] = test system: U251 CNS
[43] = test system: A549 NSCLC
[44] = test system: IGROV1 ovarian
[45] = test system: OVCAR-3 ovarian
[46] = test system: PC-3 prostate
[47] = test system: LOX IMVI melanoma
[48] = test system: T-47D breast
[49] = test system: HCT-15 colon
[50] = test system: OVCAR-5 ovarian
[51] = test system: UACC-62 melanoma
[52] = test system: HS 578T breast
[53] = test system: HT29 colon
[54] = test system: A498 renal
[55] = test system: SNB-75 CNS
[56] = test system: RPMI-8226 leukemia
[57] = test system: MDA-N
[58] = test system: SNB-19 CNS
[59] = test system: K-562 leukemia
[60] = test system: SNB-78 CNS
[61] = test system: LXFL 529 NSCLC
[62] = test system: KM20L2 colon
[63] = test system: DLD-1 colon
[64] = test system: M19-MEL melanoma
[65] = test system: DMS 114 small cell lung
[66] = test system: DMS 273 small cell lung

O=c1[nH]/c(=C/c2ccc(OCc3ccccc3)cn2)c(=O)[nH]/c1=C/c1ccc(Cl)cc1
TGI [1]: > 100 µM | TGI [2]: > 100 µM | TGI [3]: > 100 µM | TGI [4]: > 100 µM | TGI [5]: > 100 µM | TGI [6]: > 100 µM | TGI [7]: 29.4 µM | TGI [8]: > 100 µM | TGI [9]: 0.796 µM | TGI [10]: > 100 µM | TGI [11]: > 100 µM | TGI [12]: > 100 µM | TGI [13]: > 100 µM | TGI [14]: 47.8 µM | TGI [15]: > 52.4 µM | TGI [16]: > 100 µM | TGI [17]: > 84.9 µM | TGI [18]: > 100 µM | TGI [19]: > 40.2 µM | TGI [20]: > 100 µM | TGI [21]: > 28.3 µM | TGI [22]: > 100 µM | TGI [23]: > 100 µM | TGI [24]: > 100 µM | TGI [25]: > 100 µM | TGI [26]: > 100 µM | TGI [27]: 4.53 µM | TGI [28]: > 100 µM | TGI [29]: > 100 µM | TGI [30]: > 100 µM | TGI [31]: > 82.9 µM | TGI [32]: > 100 µM | TGI [33]: > 100 µM | TGI [34]: > 56.6 µM | TGI [35]: > 100 µM | TGI [36]: > 100 µM | TGI [37]: > 100 µM | TGI [38]: > 100 µM | TGI [39]: > 100 µM | TGI [40]: > 100 µM | TGI [41]: > 100 µM | TGI [42]: > 100 µM | TGI [43]: > 100 µM | TGI [44]: > 100 µM | TGI [45]: 2.45 µM | TGI [46]: > 100 µM | TGI [47]: > 100 µM | TGI [48]: > 100 µM | TGI [49]: > 100 µM | TGI [50]: > 100 µM | TGI [51]: > 100 µM | TGI [52]: 2.68 µM | TGI [53]: > 100 µM | TGI [54]: 7.53 µM | TGI [55]: 25.2 µM | TGI [56]: > 100 µM | TGI [57]: 0.723 µM | TGI [58]: > 100 µM | TGI [59]: > 100 µM

Cc1ccc(S(=O)(=O)NNC(=O)c2sc(-c3nc(C)c(C(=O)NNS(=O)(=O)c4ccc(C)cc4)s3)nc2C)cc1
TGI [3]: > 100 µM | TGI [4]: > 100 µM | TGI [5]: > 100 µM | TGI [6]: > 100 µM | TGI [7]: > 100 µM | TGI [8]: > 100 µM | TGI [10]: > 100 µM | TGI [11]: > 100 µM | TGI [60]: > 100 µM | TGI [12]: > 100 µM | TGI [13]: > 100 µM | TGI [14]: > 100 µM | TGI [15]: > 100 µM | TGI [16]: > 100 µM | TGI [18]: > 100 µM | TGI [19]: > 100 µM | TGI [20]: > 100 µM | TGI [21]: > 100 µM | TGI [25]: > 100 µM | TGI [26]: > 100 µM | TGI [61]: > 100 µM | TGI [28]: > 100 µM | TGI [29]: > 100 µM | TGI [62]: > 100 µM | TGI [30]: > 100 µM | TGI [31]: > 100 µM | TGI [32]: > 100 µM | TGI [33]: > 100 µM | TGI [34]: > 100 µM | TGI [35]: > 100 µM | TGI [36]: 99.7 µM | TGI [37]: > 100 µM | TGI [38]: > 100 µM | TGI [39]: > 100 µM | TGI [41]: > 100 µM | TGI [63]: > 100 µM | TGI [42]: > 100 µM | TGI [43]: > 100 µM | TGI [44]: > 100 µM | TGI [45]: > 100 µM | TGI [47]: > 100 µM | TGI [49]: > 100 µM | TGI [50]: > 100 µM | TGI [51]: > 100 µM | TGI [53]: > 100 µM | TGI [54]: > 100 µM | TGI [55]: > 100 µM | TGI [56]: > 100 µM | TGI [58]: > 100 µM | TGI [59]: > 100 µM | TGI [64]: > 100 µM

COCC1N=C(c2cc(OC)c(OC)c(OC)c2-c2cc3c(cc2C2OCCCO2)OCO3)O[C@H]1c1ccccc1 (some centres not stated)
TGI [3]: > 100 µM | TGI [4]: > 100 µM | TGI [5]: > 100 µM | TGI [6]: > 100 µM | TGI [7]: > 100 µM | TGI [8]: > 100 µM | TGI [10]: > 100 µM | TGI [11]: > 100 µM | TGI [12]: > 100 µM | TGI [13]: > 100 µM | TGI [14]: > 100 µM | TGI [15]: > 100 µM | TGI [16]: > 100 µM | TGI [17]: > 100 µM | TGI [18]: > 100 µM | TGI [19]: > 100 µM | TGI [20]: > 100 µM | TGI [21]: > 100 µM | TGI [22]: > 100 µM | TGI [65]: > 100 µM | TGI [25]: > 100 µM | TGI [26]: > 100 µM | TGI [28]: > 100 µM | TGI [29]: > 100 µM | TGI [62]: > 100 µM | TGI [30]: > 100 µM | TGI [31]: > 100 µM | TGI [33]: > 100 µM | TGI [34]: > 100 µM | TGI [35]: > 100 µM | TGI [36]: > 100 µM | TGI [37]: > 100 µM | TGI [38]: > 100 µM | TGI [39]: > 100 µM | TGI [41]: > 100 µM | TGI [63]: > 100 µM | TGI [66]: > 100 µM | TGI [42]: > 100 µM | TGI [43]: > 100 µM | TGI [44]: > 100 µM | TGI [45]: > 100 µM | TGI [47]: > 100 µM | TGI [49]: > 100 µM | TGI [50]: > 100 µM | TGI [51]: > 100 µM | TGI [53]: > 100 µM | TGI [54]: > 100 µM | TGI [55]: > 100 µM | TGI [56]: > 100 µM | TGI [58]: > 100 µM | TGI [59]: > 100 µM | TGI [64]: > 100 µM
